Source: ChEMBL document CHEMBL1126328, “The rotenoid core structure: Modifications to define the requirements of the toxophore” (Bioorg Med Chem Lett, 1992)

Tests used:
[1] = Inhibition of NADH dehydrogenase in blowfly flight-muscle submitochondrial preparation; assay type: tissue-based, Muscle tissue
Phormia regina = test: Relative activity against blowfly flight muscle submitochondrial NADH dehydrogenase compared to rotenone; details: Muscle tissue
[2] = Inhibition of NADH dehydrogenase in blowfly flight-muscle submitochondrial preparation experiment II; set-up: species or system Phormia regina, Muscle tissue
[3] = Inhibition of NADH dehydrogenase in blowfly flight-muscle submitochondrial preparation experiment I; assay type: tissue-based, Phormia regina, Muscle tissue

Compound | IC50 [1] | Relative activity (Phormia regina) | IC50 [2] | IC50 [3]
COc1cc2c(cc1OC)[C@@H]1C(=O)c3ccccc3O[C@@H]1CS2 | 300 nM | 0.083% | – | –
COc1ccc2c(c1)O[C@@H]1COc3ccccc3[C@@H]1C2=O | 8000 nM | 0.0031% | – | –
C=C(C)[C@H]1CC2=C(Cc3ccc4c(c3C2)O[C@@H]2COc3cc(OC)c(OC)cc3[C@H]2C4=O)O1 | 0.5 nM | 50% | – | –
O=C1c2ccccc2O[C@@H]2CSc3ccccc3[C@H]12 | 10000 nM | 0.0025% | – | –
O=C1c2ccccc2O[C@@H]2COc3ccccc3[C@H]12 | 5000 nM | 0.005% | – | –
COc1cc2c(cc1OC)[C@@H]1C(=O)c3ccccc3O[C@@H]1CO2 | 200 nM | 0.125% | – | –
C=C(C)[C@H]1CC2=C(Cc3ccc4c(c3C2)O[C@@H]2COc3cc(OC)c(OC)cc3[C@@H]2C4=O)O1 | – | 100% | 1.5 nM | 0.25 nM
COc1cc2c(cc1OC)[C@@H]1C(=O)c3ccc4c(c3O[C@@H]1CO2)Cc1cc(C(C)C)oc1C4 | 2 nM | 75% | – | –
COc1ccc2c(c1)O[C@@H]1COc3cc(OC)c(OC)cc3[C@@H]1C2=O [MUNDOSERONE] | 15 nM | 1.67% | – | –
COc1cc2c(cc1OC)[C@H]1[C@H](O)c3ccc4c(c3O[C@@H]1CO2)Cc1cc(C(C)C)oc1C4 | 400 nM | 0.063% | – | –
COc1cc2c(cc1OC)[C@@H]1[C@H](O)c3ccc4c(c3O[C@@H]1CO2)Cc1cc(C(C)C)oc1C4 | 25 nM | 1% | – | –
COc1cc2c(cc1OC)[C@H]1C(=O)c3ccc4c(c3O[C@@H]1CO2)Cc1cc(C(C)C)oc1C4 | 5 nM | 30% | – | –
